Laboratory results reported in publication PMC8587047, “Synthesis and Biological Evaluation of Harmirins, Novel Harmine–Coumarin Hybrids as Potential Anticancer Agents” (Molecules, 2021).
“Also recorded” adds a separate entry of the source. Read-outs that look alike come from different tables or passages of the source.

What was measured:
[1] = tested on: HEK293T; test: MTT cytotoxicity assay, HEK293T (non-cancer); format: cell-based, human; details: for IC50: Homo sapiens, HEK-293T, 72 h, read-out: IC50 Hek293T
Text: (§1) We selected four different cancer cell lines for antiproliferative screening in vitro, which we believed would provide sufficient data on the anticancer potential of the prepared harmirins (hepatocellular carcinoma—HepG2, colorectal adenocarcinoma, Dukes’ type C—SW620, colorectal carcinoma—HCT116, and breast adenocarcinoma—MCF-7). Additionally, we included one non-cancer cell line (embryonic kidney—HEK293T) to evaluate harmirins’ selectivity. The commonly used anticancer drug 5-FU and harmine were used as positive controls. Pre-screening was performed using 50 µM of the tested compound. Only compounds that led to more than 50% reduction in mitochondrial metabolic activity at 50 µM concentration were selected for further analysis. The selectivity index (SI) for each harmirin was calculated as a fractional ratio between the IC50 values for HEK293T and the cancer cell line MCF-7 or HCT116 since these two cell lines were the most susceptible to harmirins.
(§2) The experiments were carried out on five human cell lines purchased from American Type Culture Collection (ATCC, PO BOX 1549, manassas, VA 20108, USA): HepG2 (hepatocellular carcinoma; ATCC® HB-8065™), SW620 (colorectal adenocarcinoma; ATCC® CCL-227™), HCT116 (colorectal carcinoma ATCC® CCL-247™), MCF-7 (breast adenocarcinoma, ATCC® HTB-22™), and HEK293T (embryonic kidney cells; ATCC® CRL-3216™). All cell lines were cultured as monolayers and maintained in Dulbecco’s modified Eagle medium (DMEM) (Capricorn Scientific, USA), supplemented with 10% fetal bovine serum (FBS) (Capricorn Scientific, USA), 100 U/mL penicillin, and 100 µg/mL streptomycin (Capricorn Scientific, USA) in a humidified atmosphere with 5% CO2 at 37 °C. Cells were seeded in 96-well plates (Corning, Durham, NC, USA) at 5000–7000 cells per well (depending on the cell doubling time of a specific cell line) in 0.1 mL media and cultured for 24 h. The next day, the medium was aspirated, and cells were treated for 72 h. Only the compounds that led to more than a 50% reduction in mitochondrial metabolic activity at a concentration of 50 µM were selected for further analysis. The following concentrations of selected compounds were used: 25, 10, 5, and 1 µM. Working dilutions were freshly prepared on the day of the testing. A fresh growth medium was added to untreated control cells, which were defined as 100% viable. DMSO (0.13%) in DMEM was considered a negative control. 5-Fluorouracil (5-FU) and harmine were used as positive controls. At the end of treatment, media was removed, and cells were incubated for 1 h with 0.5 mg/mL MTT (Abcam, Cambridge, MA, USA) dissolved in serum-deprived DMEM. The absorbance was directly proportional to cell viability. The MTT-containing media was then removed, and 0.1 mL isopropanol was added per well to lyse cells and dissolve formazan. The optical density was measured at 570 nm using a microplate reader (VICTOR3, PerkinElmer). Each test point was performed in triplicate. The IC50 values (concentration required to decrease viability by 50%) were calculated by using nonlinear regression on the sigmoidal dose–response plots and are expressed as mean ± SD.

[2] = tested on: HepG2; test: MTT cytotoxicity assay, HepG2; format: cell-based; details: Homo sapiens, read-out: IC50 HepG2
Text: as §1, §2

[3] = tested on: MCF-7; test: MTT cytotoxicity assay, MCF-7; format: cell-based, human; details: for IC50: Homo sapiens, read-out: IC50 MCF-7; for activity against MCF-7, fold stronger than 5-FU: compared with 5-FU IC50; for activity against MCF-7, fold higher than harmine: compared with harmine IC50; for SI (MCF-7): ratio IC50 HEK293T / IC50 MCF-7
Text: as §1, §2

[4] = tested on: SW620; test: MTT cytotoxicity assay, SW620; format: cell-based; details: Homo sapiens, read-out: IC50 SW620
Text: as §1, §2

[5] = tested on: MCF-7 cells; test: Cell localization by fluorescence microscopy; format: cell-based, human; details: 10 µM, 30 min, MCF-7, DAPI filter
Description: We further examined the intracellular distribution of the compound 12b in MCF-7 cells, based on its fluorescence properties. Therefore, we incubated MCF-7 cells for 30 min with the tested compound 12b and analyzed its localization by fluorescence microscopy (Figure 3). No autofluorescence was detected by examining untreated cells under typical imaging conditions.
The MCF-7 cells were seeded on round microscopic coverslips placed in 24-well-plates (5 × 10^4 cells per well) and grown at 37 °C and 5% CO2 for 24 h in DMEM supplemented with FBS, penicillin, and streptomycin, as described above. Cells were then incubated with compound 12b (10 µM) for 30 min. Afterward, the medium was discharged, coverslips rinsed twice with PBS, placed on the microscopic slides, and immediately analyzed. The uptake and intracellular distribution of the tested derivative were analyzed under a fluorescence microscope (Olympus BX51) at 400 × magnification, using a DAPI filter. Images were captured with an Olympus DP70 Digital Camera.

[6] = tested on: HCT116; test: MTT cytotoxicity assay, HCT116; format: cell-based, human; details: for IC50: Homo sapiens, read-out: IC50 HCT116; for SI (HCT116): ratio IC50 HEK293T / IC50 HCT116
Text: as §1, §2

[7] = tested on: MCF-7 cells; test: Cell cycle analysis by flow cytometry (PI); format: cell-based, human; details: harmine 20 µM; for accumulation of cells in the subG1 phase (apoptotic cells) / effect on G1 phase of cell cycle / effect on percentage of cells in S phase: 12b 10 µM; for accumulation of cells in the subG1 phase (apoptotic cells): 48 h, data not shown; for effect on G1 phase of cell cycle / effect on percentage of cells in S phase: after 24 h (12b: persisted after 48 h)
Description: To gain further insight into the potential mechanism of activity of 12b, and to examine whether and how the cell growth inhibition was associated with cell cycle regulation, we assessed its influence on the cell cycle of MCF-7 cells, 24 and 48 h after the treatment and compared it with the influence of the reference compound harmine (Figure 4).
MCF-7 cells were seeded onto 6-well plates (3 × 10^5 cells per well). After 24 h, 12b was added at 10 µM concentration and harmine at 20 µM concentration. After 24 h or 48 h, the attached cells were trypsinized, combined with floating cells, washed with phosphate buffer saline (PBS), fixed with 70% ethanol, and stored at −20 °C. Immediately before analysis, the cells were washed with PBS and stained with 50 μg/mL of propidium iodide (PI) with the addition of 0.1 μg/μL of RNAse A. The stained cells were then analyzed by BD FACScalibur flow cytometer (20,000 counts were measured). The percentage of cells in each cell cycle phase was determined using FlowJo software (TreeStar Inc., USA). The tests were performed in duplicate and repeated in three separate experiments.

[8] = tested on: HeLa; parameters: method as in doi:10.1002/slct.201601020; details: read-out: GI50 against HeLa; cited from earlier work
[9] = tested on: HT-29; parameters: method as in PMID 26657602; details: read-out: IC50 against HT-29; cited from earlier work
[10] = tested on: HGC-27; parameters: method as in PMID 26657602; details: read-out: IC50 against HGC-27; cited from earlier work
[11] = MTT, mean ± SD, non-cancer cell line

Structure (SMILES)	melting point	IC50 [1, 11] [µM]	IC50 ([2]; HepG2, MTT, 72 h, mean ± SD) [µM]	IC50 ([3]; MCF7, MTT, 72 h, mean ± SD) [µM]	SI (MCF-7) [3]	IC50 ([4]; SW-620, MTT, 72 h, mean ± SD) [µM]	IC50 ([6]; HCT-116, MTT, 72 h, mean ± SD) [µM]	SI (HCT116) [6]	also measured
COc1ccc2c(c1)[nH]c1c(C)nccc12 [HAR, harmine]	–	–	–	–	0.9	–	–	3.2	IC50 [1]: 12.6 ± 0.8 µM; IC50 ([2]; HepG2, 72 h): 18.7 ± 0.8 µM; IC50 ([3]; MCF7, 72 h): 13.5 ± 1.1 µM; IC50 ([4]; SW-620, 72 h): 4.7 ± 0.6 µM; IC50 ([6]; HCT-116, 72 h): 4 ± 0.8 µM; accumulation of cells in the subG1 phase (apoptotic cells) [7]: ≤ 15%; effect on G1 phase of cell cycle [7]: G1 delay; effect on percentage of cells in S phase [7]: reduction in cells in the S phase; effect on G2/M phase of cell cycle ([7]; after 48 h): additional accumulation of cells in the G2/M phase
O=c1cc(-c2nccc3c2[nH]c2ccccc23)c2cc(Cl)ccc2o1 [coumarin–β-carboline hybrid]	–	–	–	–	–	–	–	–	GI50 [8]: 67.5 µM
COc1cc(-c2nc(Cn3cc(CN4C(=O)c5ccc(C)cc5C4=O)nn3)cc3c2[nH]c2ccccc23)cc(OC)c1OC [β-carboline–triazole hybrid]	–	–	–	–	–	–	–	–	IC50 [9]: 3.67 µM; IC50 [10]: 5.44 µM

Now from value to compound, other results behind:

melting point	Structure (SMILES)	IC50 [1, 11] [µM]	IC50 ([2]; HepG2, MTT, 72 h, mean ± SD) [µM]	IC50 ([3]; MCF7, MTT, 72 h, mean ± SD) [µM]	SI (MCF-7) [3]	IC50 ([4]; SW-620, MTT, 72 h, mean ± SD) [µM]	IC50 ([6]; HCT-116, MTT, 72 h, mean ± SD) [µM]	SI (HCT116) [6]	also measured
225.5 to 229.5 °C (dec.)	Cc1ccc2oc(=O)cc(-n3cc(COc4ccc5c(c4)[nH]c4c(C)nccc45)nn3)c2c1 [12b, 6-Methyl-4-(4-(((1-methyl-9H-pyrido[3,4-b]indol-7-yl)oxy)methyl)-1H-1,2,3-triazol-1-yl)-2H-chromen-2-one]	> 50	19.5 ± 1.5	6.9 ± 0.7	>7.2	20.8 ± 0.4	4.7 ± 0.6	>10.6	SIs (selectivity towards cancer cells in comparison to HEK293T) ([1]; cancer cell line not specified (MCF-7 or HCT116)): > 7.2; activity against MCF-7, fold stronger than 5-FU [3]: 3.4 fold; activity against MCF-7, fold higher than harmine [3]: twofold; intracellular distribution [5]: predominantly cytoplasmic distribution; also recorded: localized exclusively in the cytoplasm; also recorded: localization within the cytoplasm, but not within the nucleus; accumulation of cells in the subG1 phase (apoptotic cells) [7]: up to 10%; effect on G1 phase of cell cycle [7]: strong G1 arrest; effect on percentage of cells in S phase [7]: reduced the percentage of cells in the S phase; also recorded: drastic reduction in the percentage of cells in the S phase
249 to 251 °C (dec.)	Cc1nccc2c1[nH]c1cc(OCc3cn(-c4cc(=O)oc5ccc(F)cc45)nn3)ccc12 [12d, 6-Fluoro-4-(4-(((1-methyl-9H-pyrido[3,4-b]indol-7-yl)oxy)methyl)-1H-1,2,3-triazol-1-yl)-2H-chromen-2-one]	> 50	> 50	> 50	>1	> 50	> 50	>1	–
239 to 243.5 °C (dec.)	COc1ccc2c3ccnc(C)c3n(Cc3cn(-c4cc(=O)oc5ccccc45)nn3)c2c1 [13a, 4-(4-((7-Methoxy-1-methyl-9H-pyrido[3,4-b]indol-9-yl)methyl)-1H-1,2,3-triazol-1-yl)-2H-chromen-2-one]	12.4 ± 1.1	19.6 ± 1.3	34 ± 2.1	0.4	> 50	3.4 ± 0.6	3.6	–
253 to 255 °C (dec.)	COc1ccc2c3ccnc(C)c3n(Cc3cn(-c4cc(=O)oc5ccc(C)cc45)nn3)c2c1 [13b, 4-(4-((7-Methoxy-1-methyl-9H-pyrido[3,4-b]indol-9-yl)methyl)-1H-1,2,3-triazol-1-yl)-6-methyl-2H-chromen-2-one]	> 50	> 50	> 50	>1	> 50	> 50	>1	–
233 to 239.5 °C (dec.)	COc1ccc2c3ccnc(C)c3n(Cc3cn(-c4cc(=O)oc5ccc(Cl)cc45)nn3)c2c1 [13c, 6-Chloro-4-(4-((7-methoxy-1-methyl-9H-pyrido[3,4-b]indol-9-yl)methyl)-1H-1,2,3-triazol-1-yl)-2H-chromen-2-one]	> 50	> 50	32 ± 1.9	>1.6	> 50	34.4 ± 3.3	>1.5	–
235 to 237 °C (dec.)	COc1ccc2c3ccnc(C)c3n(Cc3cn(-c4cc(=O)oc5ccc(F)cc45)nn3)c2c1 [13d, 6-Fluoro-4-(4-((7-methoxy-1-methyl-9H-pyrido[3,4-b]indol-9-yl)methyl)-1H-1,2,3-triazol-1-yl)-2H-chromen-2-one]	3.9 ± 0.3	3.1 ± 0.5	2.7 ± 0.5	1.5	3.3 ± 0.4	12.7 ± 0.6	0.3	activity against MCF-7, fold stronger than 5-FU [3]: 9–13 fold; activity against MCF-7, fold higher than harmine [3]: 5–7 fold
